Measured values as given in ChEMBL document CHEMBL3779849, “Exploration of the P3 region of PEXEL peptidomimetics leads to a potent inhibitor of the Plasmodium protease, plasmepsin V” (Bioorg Med Chem, 2016).
Active and inactive are the calls of the source. No cut-off for these calls is given here. Non-standard residues stand in square brackets, D forms with d. Residues, ends and D or L forms follow the SMILES beside them. *: point of attachment. Phe(4-guanidino) = N=C(N)Nc1ccc(C[C@H](N)C(=O)O)cc1; Arg(NO2) = N=C(NCCC[C@H](N)C(=O)O)N[N+](=O)[O-]; Phe(4-NH2) = Nc1ccc(C[C@H](N)C(=O)O)cc1; Sta = CC(C)C[C@H](N)[C@@H](O)CC(=O)O; Arg(Me) = CNC(=N)NCCC[C@H](N)C(=O)O; Cit = NC(=O)NCCC[C@H](N)C(=O)O; NHPhenethyl = c1ccc(CCN*)cc1; Orn = NCCC[C@H](N)C(=O)O; Cbz = O=C(OCc1ccccc1)*; Ms = CS(=O)(=O)*

What was measured:
[1] = Inhibition of 2.5 ng recombinant FLAG-tagged Plasmodium vivax PMV expressed in High Five insect cells assessed as fluorogenic substrate cleavage using 12 uM DABCYL-RNKRTLAQKQ-E-EDANS as fluorogenic substrate after 120 mins by fluorescence plate reader method
[2] = test system: Plasmodium falciparum; assay: Antimalarial activity against ring-stage Plasmodium falciparum 3D7 infected in human erythrocytes assessed as parasite viability after 72 hrs by LDH assay; assay type: functional, organism-based; details: 3D7, 72 h
[3] = test system: HepG2; assay: Cytotoxicity against human HepG2 cells assessed as cell viability after 48 hrs by Cell Titer-Glo assay; assay type: cell-based; details: HepG2, 48 h
[4] = biological target: Plasmepsin V (Plasmodium falciparum (isolate 3D7)) (UniProt Q8I6Z5); assay: Inhibition of PMV in trophozoite stage of Plasmodium flaciparum 3D7 expressing PfEMP3-GFP infected in human erythrocytes assessed as PEXEL processing of PfEMP3 at 20 uM after 5 hrs by Western blot method; assay type: cell-based; details: Plasmodium falciparum 3D7
[5] = test system: Plasmodium falciparum; assay: Antimalarial activity against Plasmodium falciparum 3D7 infected in human erythrocytes assessed as parasite viability after 72 hrs by flow cytometry; assay type: functional, organism-based; details: 3D7, 72 h
[6] = biological target: Plasmepsin V (Plasmodium falciparum (isolate 3D7)) (UniProt Q8I6Z5); assay: Inhibition of PMV in trophozoite stage of Plasmodium flaciparum 3D7 expressing PfEMP3-GFP infected in human erythrocytes assessed as PEXEL processing of PfEMP3 at 1 to 20 uM after 5 hrs by Western blot method; assay type: cell-based; details: Plasmodium falciparum 3D7
[7] = Inhibition of 1 ng recombinant FLAG-tagged Plasmodium vivax PMV expressed in High Five insect cells assessed as fluorogenic substrate cleavage using 7.5 uM DABCYL-RNKRTLAQKQ-E-EDANS as fluorogenic substrate after 120 mins by fluorescence plate reader method
[8] = biological target: Plasmepsin V (Plasmodium falciparum (isolate 3D7), UniProt Q8I6Z5); assay: Inhibition of Plasmodium falciparum PMV assessed as fluorogenic substrate cleavage using DABCYL-RNKRTLAQKQ-E-EDANS as fluorogenic substrate after 120 mins by fluorescence plate reader method
[9] = Ratio of EC50 for ring-stage Plasmodium falciparum 3D7 to IC50 for recombinant FLAG-tagged Plasmodium vivax PMV

Chain of Plasmepsin V (Plasmodium falciparum (isolate 3D7)) (Q8I6Z5 whole entry, looked up): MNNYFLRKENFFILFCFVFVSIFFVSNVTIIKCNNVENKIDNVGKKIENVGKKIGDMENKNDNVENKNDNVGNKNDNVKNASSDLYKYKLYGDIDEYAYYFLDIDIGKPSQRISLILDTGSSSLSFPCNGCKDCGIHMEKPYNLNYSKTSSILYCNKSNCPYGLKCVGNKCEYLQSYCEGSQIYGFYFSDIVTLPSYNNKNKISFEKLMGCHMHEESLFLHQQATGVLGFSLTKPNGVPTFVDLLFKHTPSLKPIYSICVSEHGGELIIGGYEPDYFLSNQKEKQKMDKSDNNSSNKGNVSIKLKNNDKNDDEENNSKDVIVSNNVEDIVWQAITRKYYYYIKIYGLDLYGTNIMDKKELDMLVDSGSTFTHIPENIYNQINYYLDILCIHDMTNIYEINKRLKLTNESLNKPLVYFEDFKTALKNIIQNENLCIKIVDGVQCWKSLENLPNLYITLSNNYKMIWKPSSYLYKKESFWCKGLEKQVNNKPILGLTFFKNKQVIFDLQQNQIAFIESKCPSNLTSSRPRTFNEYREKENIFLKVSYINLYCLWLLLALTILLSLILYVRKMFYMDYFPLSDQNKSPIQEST
Chain of Plasmepsin V (Q8I6Z5 whole entry): as the sequence (Q8I6Z5 whole entry, looked up) above

| SMILES | IC50 [1] [µM] | EC50 [2] [µM] | EC50 [3] [µM] | further results |
| --- | --- | --- | --- | --- |
| CNC(=N)NCCC[C@H](NC(=O)OCc1ccccc1)C(=O)N[C@H](C(=O)N[C@@H](CC(C)C)[C@@H](O)CC(=O)NCCc1ccccc1)C(C)C (Cbz-[Arg(Me)]-Val-[Sta]-NHPhenethyl) | 37.7 | 12.7 | > 50 |  |
| CC(C)C[C@H](NC(=O)[C@@H](NC(=O)[C@H](Cc1ccc(N)cc1)NC(=O)OCc1ccccc1)C(C)C)[C@@H](O)CC(=O)NCCc1ccccc1 (Cbz-[Phe(4-NH2)]-Val-[Sta]-NHPhenethyl) | > 50 |  |  |  |
| CONC(=N)NCCC[C@H](NC(=O)OCc1ccccc1)C(=O)N[C@H](C(=O)N[C@@H](CC(C)C)[C@@H](O)CC(=O)NCCc1ccccc1)C(C)C | 18 | 1.97 | > 50 |  |
| CC(C)C[C@H](NC(=O)[C@@H](NC(=O)[C@H](Cc1cccc(NC(=N)N)c1)NC(=O)OCc1ccccc1)C(C)C)[C@@H](O)CC(=O)NCCc1ccccc1 | > 50 |  |  |  |
| CC(C)C[C@H](NC(=O)[C@@H](NC(=O)[C@H](CCCNS(C)(=O)=O)NC(=O)OCc1ccccc1)C(C)C)[C@@H](O)CC(=O)NCCc1ccccc1 (Cbz-[Orn](Ms)-Val-[Sta]-NHPhenethyl) | > 50 |  |  |  |
| CC(C)C[C@H](NC(=O)[C@@H](NC(=O)[C@H](CCCNC(N)=O)NC(=O)OCc1ccccc1)C(C)C)[C@@H](O)CC(=O)NCCc1ccccc1 (Cbz-[Cit]-Val-[Sta]-NHPhenethyl) | > 50 |  |  |  |
| CC(=O)NCCC[C@H](NC(=O)OCc1ccccc1)C(=O)N[C@H](C(=O)N[C@@H](CC(C)C)[C@@H](O)CC(=O)NCCc1ccccc1)C(C)C (Cbz-[Orn](Ac)-Val-[Sta]-NHPhenethyl) | > 50 |  |  |  |
| CC(C)C[C@H](NC(=O)[C@@H](NC(=O)[C@H](CCCNC(=N)N)NC(=O)OCc1ccccc1)C(C)C)[C@@H](O)CC(=O)NCCc1ccccc1 (Cbz-Arg-Val-[Sta]-NHPhenethyl) | 0.128 | 3.26 | > 50 | inhibition [4]: Active |
| CC(C)C[C@H](NC(=O)[C@@H](NC(=O)[C@H](CCCNC(=N)NC#N)NC(=O)OCc1ccccc1)C(C)C)[C@@H](O)CC(=O)NCCc1ccccc1 | > 50 |  |  |  |
| CC(C)C[C@H](NC(=O)[C@@H](NC(=O)[C@H](CCCNC(=N)N[N+](=O)[O-])NC(=O)OCc1ccccc1)C(C)C)[C@@H](O)CC(=O)NCCc1ccccc1 (Cbz-[Arg(NO2)]-Val-[Sta]-NHPhenethyl) | > 50 |  |  |  |
| CC(C)C[C@H](NC(=O)[C@@H](NC(=O)[C@H](Cc1cccc(N)c1)NC(=O)OCc1ccccc1)C(C)C)[C@@H](O)CC(=O)NCCc1ccccc1 | > 50 |  |  |  |
| CC(=N)NCCC[C@H](NC(=O)OCc1ccccc1)C(=O)N[C@H](C(=O)N[C@@H](CC(C)C)[C@@H](O)CC(=O)NCCc1ccccc1)C(C)C | 40.3 | 21.4 | > 50 | inhibition [4]: inactive |
| CCN(CC)CCCC(C)Nc1ccnc2cc(Cl)ccc12 (stereo not given) [CHLOROQUINE] |  | 0.012 |  |  |
| CC(C)C[C@H](NC(=O)[C@@H](NC(=O)[C@H](CCCN(C)C(=N)N)NC(=O)OCc1ccccc1)C(C)C)[C@@H](O)CC(=O)NCCc1ccccc1 | > 50 |  |  |  |
| CC(C)C[C@H](NC(=O)[C@@H](NC(=O)[C@H](CCONC(=N)N)NC(=O)OCc1ccccc1)C(C)C)[C@H](O)CC(=O)NCCc1ccccc1 | 2.74 | 5.65 | > 50 | inhibition [4]: inactive |
| CC(C)C[C@H](NC(=O)[C@@H](NC(=O)[C@H](CCCNC(C)C)NC(=O)OCc1ccccc1)C(C)C)[C@@H](O)CC(=O)NCCc1ccccc1 | > 50 |  |  |  |
| CC(C)C[C@H](NC(=O)[C@@H](NC(=O)[C@H](CCC(=O)NC(=N)N)NC(=O)OCc1ccccc1)C(C)C)[C@@H](O)CC(=O)NCCc1ccccc1 | 41.6 | 3.33 | > 50 |  |
| CC(C)C[C@H](NC(=O)[C@@H](NC(=O)[C@H](CCCNC(=N)NO)NC(=O)OCc1ccccc1)C(C)C)[C@@H](O)CC(=O)NCCc1ccccc1 | 3.88 | 3.97 | > 50 | inhibition [4]: inactive |
| CC(C)C[C@H](NC(=O)[C@@H](NC(=O)[C@H](CCONC(=N)N)NC(=O)OCc1ccccc1)C(C)C)[C@@H](O)CC(=O)NCCc1ccccc1 | 0.01 | 0.229 | > 50 | EC50 [5]: 0.4 µM; inhibition [6]: Active; IC50 [7]: 0.0016 µM; IC50 [8]: 0.0008 µM; Ratio [9]: 25 |
| CC(C)C[C@H](NC(=O)[C@@H](NC(=O)[C@H](Cc1ccc(NC(=N)N)cc1)NC(=O)OCc1ccccc1)C(C)C)[C@@H](O)CC(=O)NCCc1ccccc1 (Cbz-[Phe(4-guanidino)]-Val-[Sta]-NHPhenethyl) | > 50 |  |  |  |
